Results on three molecules are retold here after patent US20250368623A1, “PYRIDAZINONE-DERIVED COMPOUNDS FOR THE MODULATION OF MYC AND FOR MEDICAL USES” (GENETIC INTELLIGENCE, INC, priority 2022, published 2025).

Holding throughout (assay type): cell-based
Experiment [1] relates to HepG2. The experiment is described as follows: CCK-8 cell viability assay, HepG2. The conditions noted are these: Homo sapiens; CCK-8, HepG2, 2-day or 3-day incubation, cytotoxic effect. (Tetrazolium assays rely on reduction of a dye to a coloured formazan, in cell work by metabolically active cells.)
Description: The effect of test compounds on cell viability is determined using the CCK-8 assay kit (Dojindo CK04-1000) according to the following protocol. The human cancer cell lines (e.g., A549, HepG2, JeKo-1, MDA-MB-231, etc.) and non-cancer human cell lines (e.g., HEK-293, HaCaT, etc.), are seeded at 20,000 cells per well in a 96-well plate. After 1 day, the cells are treated with test compounds at various final concentrations (e.g., 10 nM, 31.6 nM, 100 nM, 316 nM, 1 μM, 3.16 μM, 10 μM, 20 μM, etc.). After a 2-day or 3-day incubation period, 10 μL of CCK-8 solution, which contains the WST-8 dye, is added to each well according to the kit manufacturer's protocol. After incubation for 1-4 hours, the absorbance at 450 nm is measured using a microplate reader. The absorbance at 450 nm measures the amount of WST-8 that is reduced to WST-8 formazan by cellular dehydrogenases, which is directly proportional to the number of living cells. The cytotoxic effect of test compounds at different concentrations is calculated by subtracting from 1 the ratio of absorbance of the compound-treated sample at 450 nm to that of the no-compound, solvent only (DMSO)-treated sample. […] The IC50 values for the cytotoxic effect of each test compound in A549, HepG2, JeKo-1, and/or MDA-MB-231 cells are determined by plotting a dose-response curve to calculate the concentration of test compound that produces half of the maximum cytotoxic effect.
The test system of another experiment is MDA-MB-231. The experiment is described as follows: CCK-8 cell viability assay, MDA-MB-231. The conditions noted are these: Homo sapiens; CCK-8, MDA-MB-231, 2-day or 3-day incubation, cytotoxic effect. The procedure: (§1) The effect of test compounds on cell viability is determined using the CCK-8 assay kit (Dojindo CK04-1000) according to the following protocol. The human cancer cell lines (e.g., A549, HepG2, JeKo-1, MDA-MB-231, etc.) and non-cancer human cell lines (e.g., HEK-293, HaCaT, etc.), are seeded at 20,000 cells per well in a 96-well plate. After 1 day, the cells are treated with test compounds at various final concentrations (e.g., 10 nM, 31.6 nM, 100 nM, 316 nM, 1 μM, 3.16 μM, 10 μM, 20 μM, etc.). After a 2-day or 3-day incubation period, 10 μL of CCK-8 solution, which contains the WST-8 dye, is added to each well according to the kit manufacturer's protocol. After incubation for 1-4 hours, the absorbance at 450 nm is measured using a microplate reader. The absorbance at 450 nm measures the amount of WST-8 that is reduced to WST-8 formazan by cellular dehydrogenases, which is directly proportional to the number of living cells. The cytotoxic effect of test compounds at different concentrations is calculated by subtracting from 1 the ratio of absorbance of the compound-treated sample at 450 nm to that of the no-compound, solvent only (DMSO)-treated sample. A higher number indicates a greater cytotoxic effect of the test compound on cells (corresponding to a greater reduction in cellular dehydrogenase activity), and vice versa. The IC50 values for the cytotoxic effect of each test compound in A549, HepG2, JeKo-1, and/or MDA-MB-231 cells are determined by plotting a dose-response curve to calculate the concentration of test compound that produces half of the maximum cytotoxic effect. The cytotoxic effect and IC50 of test compounds are also measured in a non-cancer human cell line (e.g., HEK-293, and/or HaCaT) as a proxy for healthy cells to determine the therapeutic window of the test compounds (i.e., the concentration range at which the test compounds selectively kill cancer cells but not healthy cells). The therapeutic index of a test compound is defined herein as its IC50 in HEK-293 cells divided by its IC50 in HepG2 cells.

The test system of a further experiment is JeKo-1. In words: CCK-8 cell viability assay, JeKo-1. The conditions noted are these: Homo sapiens; CCK-8, JeKo-1, 2-day or 3-day incubation, cytotoxic effect. The procedure:
as §1

For the next experiment, the system named is A549. In words: CCK-8 cell viability assay, A549. The conditions noted are these: Homo sapiens; CCK-8, A549, 2-day or 3-day incubation, cytotoxic effect.
Experiment [2] has as its system HepG2. The experiment is described as follows: CellTiter-Glo 2.0 cell viability assay, HepG2. As to conditions: Homo sapiens, 48 h; CellTiter-Glo 2.0, HepG2, 2-day incubation. A general note: In ATP-based viability assays light output follows the ATP content of the culture.
Description: (§2) The effect of test compounds on cell viability is also determined using the CellTiter-Glo 2.0 assay kit (Promega G9241) according to the following protocol. The human cancer cell line (e.g., HepG2) and a non-cancer human cell line (e.g., HEK-293), are seeded at 20,000 cells per well in a 96-well plate. After 1 day, the cells are treated with test compounds at various concentrations (e.g., 10 nM, 31.6 nM, 100 nM, 316 nM, 1 μM, 3.16 μM, 10 μM, 20 μM, etc.). After a 2-day incubation period, the CellTiter-Glo 2.0 assay is performed according to the kit manufacturer's protocol. […] The contents are mixed for 2 minutes on an orbital shaker to induce cell lysis, and incubated for 10 minutes at room temperature, following which the luminescent signal is measured using a microplate reader. […] The cytotoxic effect of test compounds at different concentrations is calculated by subtracting from 1 the ratio of the luminescence signal of the compound-treated sample to that of the no-compound, solvent only (DMSO)-treated sample. […] The IC50 values for the cytotoxic effect of each test compound in HepG2 cells are determined by plotting a dose-response curve to calculate the concentration of test compound that produces half of the maximum cytotoxic effect. […]
Experiment [3] relates to HEK-293. In words: CellTiter-Glo 2.0 cell viability assay, HEK-293. The conditions noted are these: Homo sapiens, HEK293, 48 h; CellTiter-Glo 2.0, HEK-293, 2-day incubation.
Description: as §2
For experiment [4], the system named is HEK-293. In words: ApoTox-Glo Triplex assay (live-dead ratio), HEK-293. The conditions noted are these: Homo sapiens, HEK293, 48 h, HEK-293, 2-day incubation.
Description: The effects of test compounds on cell viability and apoptosis are determined using the ApoTox-Glo Triplex assay kit (Promega G6320) according to the following protocol. The human cancer cell line (e.g., HepG2) and a non-cancer human cell line (e.g., HEK-293), are seeded at 20,000 cells per well in a 96-well plate. After 1 day, the cells are treated with test compounds at various final concentrations (e.g., 10 nM, 31.6 nM, 100 nM, 316 nM, 1 μM, 3.16 μM, 10 μM, 20 μM, etc.). After a 2-day incubation period, the ApoTox-Glo Triplex assay is performed according to the kit manufacturer's protocol. […] After incubation for 30 minutes at 37° C., the fluorescence signal is measured at two wavelength sets (400Ex/505Em) and (485Ex/520Em) to assess live-cell protease activity and dead-cell protease activity respectively. […] After incubation for 30 minutes at room temperature, the luminescent signal is measured using a microplate reader. […]
The cytotoxic effect of test compounds according to the ApoTox-Glo Triplex assay is calculated as follows. The live-dead ratio is calculated by dividing the fluorescence signal for live-cell protease activity with the fluorescence signal for dead-cell protease activity. […]

Description for A549: The effect of test compounds on cell viability is determined using the CCK-8 assay kit (Dojindo CK04-1000) according to the following protocol. The human cancer cell lines (e.g., A549, HepG2, JeKo-1, MDA-MB-231, etc.) and non-cancer human cell lines (e.g., HEK-293, HaCaT, etc.), are seeded at 20,000 cells per well in a 96-well plate. After 1 day, the cells are treated with test compounds at various final concentrations (e.g., 10 nM, 31.6 nM, 100 nM, 316 nM, 1 μM, 3.16 μM, 10 μM, 20 μM, etc.). After a 2-day or 3-day incubation period, 10 μL of CCK-8 solution, which contains the WST-8 dye, is added to each well according to the kit manufacturer's protocol. After incubation for 1-4 hours, the absorbance at 450 nm is measured using a microplate reader. The absorbance at 450 nm measures the amount of WST-8 that is reduced to WST-8 formazan by cellular dehydrogenases, which is directly proportional to the number of living cells. The cytotoxic effect of test compounds at different concentrations is calculated by subtracting from 1 the ratio of absorbance of the compound-treated sample at 450 nm to that of the no-compound, solvent only (DMSO)-treated sample. […]

One may read the IC50 as the concentration needed to halve the response being measured. Take `Cc1nc(C)c(-c2ccc(=O)n(CC3CCN(c4ncnc5ncccc45)CC3(F)F)n2)s1` (stereo not shown) [6-(2,4-dimethyl-1,3-thiazol-5-yl)-2-(3,3-difluoro-1-pyrido[2,3-d]pyrimidin-4-ylpiperidin-4-yl)methylpyridazin-3-one]: the IC50 was 0.3 µM with HepG2 [1], 1 µM in the experiment with MDA-MB-231, 0.2 µM with JeKo-1 and 1.8 µM in the experiment with A549.

As to `Cc1nc(C)c(-c2ccc(=O)n(CC3CCN(c4ncnc5ncccc45)CC3F)n2)s1` (stereo not shown) [6-(2,4-dimethyl-1,3-thiazol-5-yl)-2-(3-fluoro-1-pyrido[2,3-d]pyrimidin-4-ylpiperidin-4-yl)methylpyridazin-3-one], the IC50 is 0.5 µM with HepG2 [1], 1.1 µM in the experiment on MDA-MB-231 and 0.3 µM in the experiment on JeKo-1.

Turning to `CC(=O)O[C@H]1C(=O)[C@@]2(C)[C@H]([C@H](OC(=O)c3ccccc3)[C@]3(O)C[C@H](OC(=O)[C@H](O)[C@@H](NC(=O)c4ccccc4)c4ccccc4)C(C)=C1C3(C)C)[C@]1(OC(C)=O)CO[C@@H]1C[C@@H]2O` [paclitaxel, reference compound], the values for the IC50 with HepG2 [2], in the experiment with HEK-293 [3] and with HEK-293 [4] were 7.5 µM, 27 µM and 6.9 µM, respectively.
